{
  "source": "patent US10093627B2",
  "about": "“Tetrahydroquinoline derivatives and their use as Epac inhibitors” (Institut National de la Sante et de la Recherche Medicale …, priority 2012, dated 2018)",
  "system": "Epac1-induced Rap1 activation in HEK293 cells",
  "assay": "Epac1-induced Rap1 activation, Rap1-GTP pull-down in HEK293 cells",
  "assay_type": "cell-based",
  "details": "10 min",
  "procedure": "HEK293 cells were transfected with either pcDNA3 control vector or Epac1 (see FIG. 2A).\nHEK293 cells were transfected with Epac1 and 24 h after transfection, cells were preincubated or not with CE3F4 for 30 min and were then treated or not with Sp-007 (10 μM) for 10 min (see FIG. 2B).\nHEK293 cells overexpressing β1AR (Beta-1 adrenergic receptors) and transfected with Epac1 were pretreated or not with CE3F4 and stimulated or not with Iso (10 μM) for 10 min (see FIG. 2C).\nAmounts of Rap1-GTP were determined by pull-down assays (see Material and Methods). The bar graph represents the mean±S.E.M. of 5 (FIG. 2A, 2B) or 3 (FIG. 2C) independent experiments. Results are expressed as the percentage of unstimulated control cells.\nRas and Rap1 pull-down experiments were performed using a GST fusion protein containing respectively the Ras binding domain of Raf1-RBD and the Rap1 binding domain of Ral-GDS as previously described (Métrich et al., 2008). Cells were starved for 1 h before stimulation in MEM free with penicillin-streptomycin (1%). After stimulation, cells were lysed in RIPA buffer (50 mM Tris-HCl, pH 7.5; 500 mM NaCl; 20 mM MgCl2; 0.5% deoxycholic acid; 0.1% SDS; 1% Triton X-100; 1 mM PMSF; protease and phosphatase inhibitors) and 500 μg of protein were incubated with either GST-Raf1-RBD (for Ras) or Ral-GDS (for Rap1) coupled to glutathione-Sepharose beads (Amersham Biosciences) for 1h at 4° C. Beads were then washed three times in washing buffer (50 mM Tris-HCl, pH 7.5; 150 mM NaCl, 20 mM MgCl2, 1% Triton X-100; 0.1 mM PMSF; protease and phosphatase inhibitors). Rap1-GTP or Ras samples and corresponding total lysates were separated on SDS-PAGE gels and transferred onto a polyvinylidene difluoride (PVDF) membrane (Amersham Pharmacia Biotech).",
  "data": [
    {"smiles": "CC1CCc2c(cc(Br)c(F)c2Br)N1C=O", "note": "(racemic) [CE3F4]", "values": [
      {"measurement": "Effect on increase in amount of Rap1-GTP following Sp-007 treatment", "setting": "CE3F4 20 μM, 30 min preincubation, Sp-007 10 μM, HEK293 transfected with Epac1, FIG. 2B", "result": "prevented the increase"},
      {"measurement": "Effect on Epac1-induced Rap1 activation following β1-AR stimulation by isoprenaline", "setting": "Iso 10 μM, HEK293 overexpressing β1AR, transfected with Epac1, FIG. 2C", "result": "decreased"}
    ]}
  ]
}
